Several values for one entry are separate records, joined by “and”; a condition that tells them apart may be missing. Equal entries are not always repeated.
Columns and labels:
[1] = tested on: pregnancy; test: pulsed oral administration of NAC to patients; format: in vivo, human; conditions: three consecutive days a week
Protocol: Below is the result from giving pulsed administration of NAC to 15 patients, 8 of which became pregnant. According to this, NAC was administered to patients per os for 3 months or more according to the following schedule: 600 mg three times a day, three consecutive days a week. […] 7, no. 4, pp. 355-359, 2007.]; (2) splitting the total dose in 3 is simple for patients and, with reference to the known NAC pharmacokinetics [[…] and […], “Pharmacokinetic and pharmacodynamic studies of N-acetylcysteine, a potential chemopreventive agent during a phase I trial,” Cancer Epidemiology Biomarkers and Prevention, vol. 4, no. 3, pp. 245-251, 1995.], grants a nearly constant plasma level of the drug; (3) the four-day medication-free interval provides a washout period useful to limit the reported decrease of NAC plasma level observed during prolonged treatments. According to examples described in the specification 15 patients were treated with pulsed administration of N-acetyl-L-cysteine for use in IVF orally in a dose of 600 mg three times a day during three consecutive days followed by four days of interruption during 3 months or more.

[2] = tested on: 1-cell rabbit embryos
From the text: The eventual occurrence of NAC embryotoxicity was preliminary tested.
To verify the embryotoxicity of NAC the application of two embryotoxicity techniques—rabbit embryo bioassay and human sperm motility bioassay—were used.

[3] = tested on: embryo implantation; test: embryo implantation in oxytocin-treated mice; format: in vivo; conditions: oxytocin-treated mice
From the text: Indeed, in mice, NAC was confirmed to support embryo implantation. In the animal model, embryo implantation rate was decreased when the mice were given oxytocin.
In mice, NAC was confirmed to support embryo implantation. In the animal model, embryo implantation rate was decreased when the mice were given oxytocin.

[4] = tested on: uterine contractions; test: clinical case: intravenous NAC prior to embryo transfer; format: in vivo, human; conditions: patient, NAC 50 mg/kg intravenous infusion 60 min
Protocol: The very first case of clinical application of NAC prior to embryo transfer was recently documented. NAC was administered in a concentration of 50 mg/kg to a patient who had previously undergone five embryo transfers involving a total number of 8 good-quality embryos. Immediately before embryo transfer, the presence of increased uterine contractile activity was confirmed by ultrasound. NAC 50 mg/kg body weight was administered in intravenous infusion for 60 min. Embryo transfer was carried out 60 min from the end of the 60 min NAC 50 mg/kg body weight administration. Both before connecting the infusion and directly before embryo transfer, a transvaginal sagittal scan recording was performed.

[5] = tested on: IVF; test: NAC administration in connection with IVF treatment (clinical outcome); format: in vivo, human
From the text: To date, NAC has not been considered a drug in fertility treatment although it has been used for oral treatment of endometrioses as described in EP 2305238. In that study no conclusions about pregnancies were made. To the contrary when being treated for endometriosis it was not expected that any pregnancies could occur. […] This was one of the reasons why the present inventors started investigating whether NAC could be used in connection with IVF.
Already from the start of IVF it has been a problem that the clinical outcome in IVF treatment is low.
The composition of the present invention, comprising NAC for the treatment of IVF according to one embodiment to be administered intravenously at a dose between approximately 50 and 150 mg/kg/day.
In still another embodiment of the present invention the composition comprises NAC to be administered orally at a dose of approximately 30-45 mg/kg/day.

[6] = cited from earlier work

**Q.** Which results are given for `CC(=O)N[C@@H](CS)C(=O)O` [NAC, N-acetyl-L-cysteine]?
**A.** pregnancy after months post NAC treatment ([1]; individual patients 1-8, pulsed oral NAC 600 mg three times a day): 14 months and 3 months and 1 months (2×) and 19 months and 8 months and 6 months and 0 months; patients who became pregnant ([1]; of 15 patients, per os 600 mg three times a day, 3 months or more): 8; survival of 1-cell rabbit embryos [2]: not to affect the survival of 1-cell rabbit embryos; implantation rates [3]: dose-dependently restored; amplitude of uterine contractions [4]: apparent decrease in their amplitude; uterine contractions directly before embryo transfer ([4]; from 10 contractions per 3 min before infusion, transvaginal scan): five; live births ([5]; NAC preferably a few days prior to IVF treatment): higher percentage of live births; effectiveness in IVF ([5]; intravenous, lower limit approximately 50 mg/kg/day): effective in IVF; IVF outcome ([5]; one person who had taken NAC orally for endometriosis, two previous IVF trials failed): successful IVF treatment; effect in connection with IVF ([5]; oral, approximately 30-45 mg/kg/day): give effect in connection with IVF; NAC plasma level after prolonged treatments ([6]; Pendyala and Creaven 1995): decrease in NAC plasma level; diffusion in tissues and cells ([6]; in vivo): freely diffuses in almost all tissues and cells; peak concentration in plasma reached in ([6]; in vivo): about one; half-life ([6]; plasma): about three

Reference: patent publication US9585854B2, “N-acetyl-L-cysteine for use in in vitro fertilization” (IASOMAI AB, priority 2012, dated 2017)
